From PubChem BioAssay AID1259407 (Chemical Carcinogenesis Research Information System (CCRIS), 2018)
Calls of active or inactive are those of the source. The rule behind the calls is not given here.

Test system: CCRIS mutagenicity, Ames/micronucleus/aberration tests
Test: CCRIS mutagenicity studies
[1] = Test System: AMES SALMONELLA TYPHIMURIUM, Strain/Indicator: TA98, Metabolic Activation: NONE, Method: PREINCUBATION
[2] = Test System: AMES SALMONELLA TYPHIMURIUM, Strain/Indicator: TA100, Metabolic Activation: NONE, Method: PREINCUBATION
[3] = Test System: AMES SALMONELLA TYPHIMURIUM, Strain/Indicator: TA1535, Metabolic Activation: NONE, Method: PREINCUBATION
[4] = Test System: AMES SALMONELLA TYPHIMURIUM, Strain/Indicator: TA1537, Metabolic Activation: NONE, Method: PREINCUBATION

## COc1ccc2nc(N)sc2c1
Test System: AMES SALMONELLA TYPHIMURIUM, Strain/Indicator: TA98, Metabolic Activation: HAMSTER, LIVER, S-9, AROCLOR 1254, Method: STANDARD PLATE
  mutagenic call: active; positive
Test System: AMES SALMONELLA TYPHIMURIUM, Strain/Indicator: TA98, Metabolic Activation: NONE, Method: STANDARD PLATE
  mutagenic call: active; positive
Test System: AMES SALMONELLA TYPHIMURIUM, Strain/Indicator: TA98, Metabolic Activation: RAT, LIVER, S-9, AROCLOR 1254, Method: STANDARD PLATE
  mutagenic call: active; positive
Test System: AMES SALMONELLA TYPHIMURIUM, Strain/Indicator: TA100, Metabolic Activation: HAMSTER, LIVER, S-9, AROCLOR 1254, Method: STANDARD PLATE
  mutagenic call: active; positive
Test System: AMES SALMONELLA TYPHIMURIUM, Strain/Indicator: TA100, Metabolic Activation: NONE, Method: STANDARD PLATE
  mutagenic call: inactive; negative
Test System: AMES SALMONELLA TYPHIMURIUM, Strain/Indicator: TA100, Metabolic Activation: RAT, LIVER, S-9, AROCLOR 1254, Method: STANDARD PLATE
  mutagenic call: active; positive
Test System: AMES SALMONELLA TYPHIMURIUM, Strain/Indicator: TA1535, Metabolic Activation: HAMSTER, LIVER, S-9, AROCLOR 1254, Method: STANDARD PLATE
  mutagenic call: active; positive
Test System: AMES SALMONELLA TYPHIMURIUM, Strain/Indicator: TA1535, Metabolic Activation: NONE, Method: STANDARD PLATE
  mutagenic call: inactive; negative
Test System: AMES SALMONELLA TYPHIMURIUM, Strain/Indicator: TA1535, Metabolic Activation: RAT, LIVER, S-9, AROCLOR 1254, Method: STANDARD PLATE
  mutagenic call: active; positive
Test System: AMES SALMONELLA TYPHIMURIUM, Strain/Indicator: TA1537, Metabolic Activation: HAMSTER, LIVER, S-9, AROCLOR 1254, Method: STANDARD PLATE
  mutagenic call: active; positive
Test System: AMES SALMONELLA TYPHIMURIUM, Strain/Indicator: TA1537, Metabolic Activation: NONE, Method: STANDARD PLATE
  mutagenic call: inactive; negative
Test System: AMES SALMONELLA TYPHIMURIUM, Strain/Indicator: TA1537, Metabolic Activation: RAT, LIVER, S-9, AROCLOR 1254, Method: STANDARD PLATE
  mutagenic call: active; positive
Test System: AMES SALMONELLA TYPHIMURIUM, Strain/Indicator: TA1538, Metabolic Activation: HAMSTER, LIVER, S-9, AROCLOR 1254, Method: STANDARD PLATE
  mutagenic call: active; positive
Test System: AMES SALMONELLA TYPHIMURIUM, Strain/Indicator: TA1538, Metabolic Activation: NONE, Method: STANDARD PLATE
  mutagenic call: active; positive
Test System: AMES SALMONELLA TYPHIMURIUM, Strain/Indicator: TA1538, Metabolic Activation: RAT, LIVER, S-9, AROCLOR 1254, Method: STANDARD PLATE
  mutagenic call: active; positive
Test System: MOUSE LYMPHOMA, Strain/Indicator: L5178Y (TK+/TK-), Metabolic Activation: NONE, Method: SUSPENSION/PLATE
  mutagenic call: inactive; negative. reevaluation of results: negative
Test System: MOUSE LYMPHOMA, Strain/Indicator: L5178Y (TK+/TK-), Metabolic Activation: RAT, LIVER, S-9, AROCLOR 1254, Method: SUSPENSION/PLATE
  mutagenic call: active; positive. reevaluation of results: positive

## c1ccc(P(c2ccccc2)c2ccccc2)cc1
Test System: AMES SALMONELLA TYPHIMURIUM, Strain/Indicator: TA98, Metabolic Activation: HAMSTER, LIVER, S-9, AROCLOR 1254 (10%), Method: PREINCUBATION
  mutagenic call: inactive; negative
[1]
  mutagenic call: inactive; negative
Test System: AMES SALMONELLA TYPHIMURIUM, Strain/Indicator: TA98, Metabolic Activation: RAT, LIVER, S-9, AROCLOR 1254 (10%), Method: PREINCUBATION
  mutagenic call: inactive; negative
Test System: AMES SALMONELLA TYPHIMURIUM, Strain/Indicator: TA100, Metabolic Activation: HAMSTER, LIVER, S-9, AROCLOR 1254 (10%), Method: PREINCUBATION
  mutagenic call: inactive; negative
[2]
  mutagenic call: inactive; negative
Test System: AMES SALMONELLA TYPHIMURIUM, Strain/Indicator: TA100, Metabolic Activation: RAT, LIVER, S-9, AROCLOR 1254 (10%), Method: PREINCUBATION
  mutagenic call: inactive; negative
Test System: AMES SALMONELLA TYPHIMURIUM, Strain/Indicator: TA1535, Metabolic Activation: HAMSTER, LIVER, S-9, AROCLOR 1254 (10%), Method: PREINCUBATION
  mutagenic call: inactive; negative
[3]
  mutagenic call: inactive; negative
Test System: AMES SALMONELLA TYPHIMURIUM, Strain/Indicator: TA1535, Metabolic Activation: RAT, LIVER, S-9, AROCLOR 1254 (10%), Method: PREINCUBATION
  mutagenic call: inactive; negative
Test System: AMES SALMONELLA TYPHIMURIUM, Strain/Indicator: TA1537, Metabolic Activation: HAMSTER, LIVER, S-9, AROCLOR 1254 (10%), Method: PREINCUBATION
  mutagenic call: inactive; negative
[4]
  mutagenic call: inactive; negative
Test System: AMES SALMONELLA TYPHIMURIUM, Strain/Indicator: TA1537, Metabolic Activation: RAT, LIVER, S-9, AROCLOR 1254 (10%), Method: PREINCUBATION
  mutagenic call: inactive; negative

## O[C@@H]1c2ccc3cc4ccccc4cc3c2[C@@H]2OC2[C@@H]1O (stereo partly drawn)
Test System: CHINESE HAMSTER V-79, Strain/Indicator: V-79/8-AZAGUANINE, Metabolic Activation: NONE, Method: STANDARD PLATE
  mutagenic call: active; positive

## Nc1cccc2c1Cc1ccccc1-2
Test System: AMES SALMONELLA TYPHIMURIUM, Strain/Indicator: TA98, Metabolic Activation: RAT, LIVER, S-9, AROCLOR 1254 (2 OR 4%), Method: STANDARD PLATE
  mutagenic call: active; positive
Test System: AMES SALMONELLA TYPHIMURIUM, Strain/Indicator: TA100, Metabolic Activation: RAT, LIVER, S-9, AROCLOR 1254 (4%), Method: STANDARD PLATE
  mutagenic call: active; positive
Test System: AMES SALMONELLA TYPHIMURIUM, Strain/Indicator: TA1535, Metabolic Activation: RAT, LIVER, S-9, AROCLOR 1254 (4%), Method: STANDARD PLATE
  mutagenic call: inactive; negative
Test System: AMES SALMONELLA TYPHIMURIUM, Strain/Indicator: TA1537, Metabolic Activation: RAT, LIVER, S-9, AROCLOR 1254 (4%), Method: STANDARD PLATE
  mutagenic call: active; positive

## O=c1n(Cl)c(=O)n(Cl)c(=O)n1Cl
[1]
  mutagenic call: inactive; negative
Test System: AMES SALMONELLA TYPHIMURIUM, Strain/Indicator: TA98, Metabolic Activation: RAT LIVER S-9, PHENOBARBITAL AND BETA-NAPHTHOFLAVONE, Method: PREINCUBATION
  mutagenic call: inactive; negative
Test System: AMES SALMONELLA TYPHIMURIUM, Strain/Indicator: TA98, Metabolic Activation: RAT, LIVER, S-9, KC 500, Method: PREINCUBATION
  mutagenic call: inactive; negative
[2]
  mutagenic call: inactive; negative
Test System: AMES SALMONELLA TYPHIMURIUM, Strain/Indicator: TA100, Metabolic Activation: RAT LIVER S-9, PHENOBARBITAL AND BETA-NAPHTHOFLAVONE, Method: PREINCUBATION
  mutagenic call: inactive; negative
Test System: AMES SALMONELLA TYPHIMURIUM, Strain/Indicator: TA100, Metabolic Activation: RAT, LIVER, S-9, KC 500, Method: PREINCUBATION
  mutagenic call: inactive; negative
[3]
  mutagenic call: inactive; negative
Test System: AMES SALMONELLA TYPHIMURIUM, Strain/Indicator: TA1535, Metabolic Activation: RAT LIVER S-9, PHENOBARBITAL AND BETA-NAPHTHOFLAVONE, Method: PREINCUBATION
  mutagenic call: inactive; negative
Test System: AMES SALMONELLA TYPHIMURIUM, Strain/Indicator: TA1535, Metabolic Activation: RAT, LIVER, S-9, KC 500, Method: PREINCUBATION
  mutagenic call: inactive; negative
[4]
  mutagenic call: inactive; negative
Test System: AMES SALMONELLA TYPHIMURIUM, Strain/Indicator: TA1537, Metabolic Activation: RAT LIVER S-9, PHENOBARBITAL AND BETA-NAPHTHOFLAVONE, Method: PREINCUBATION
  mutagenic call: inactive; negative
Test System: AMES SALMONELLA TYPHIMURIUM, Strain/Indicator: TA1537, Metabolic Activation: RAT, LIVER, S-9, KC 500, Method: PREINCUBATION
  mutagenic call: inactive; negative
Test System: AMES SALMONELLA TYPHIMURIUM, Strain/Indicator: TA1538, Metabolic Activation: NONE, Method: PREINCUBATION
  mutagenic call: inactive; negative
Test System: AMES SALMONELLA TYPHIMURIUM, Strain/Indicator: TA1538, Metabolic Activation: RAT LIVER S-9, PHENOBARBITAL AND BETA-NAPHTHOFLAVONE, Method: PREINCUBATION
  mutagenic call: inactive; negative
Test System: AMES SALMONELLA TYPHIMURIUM, Strain/Indicator: TA1538, Metabolic Activation: RAT, LIVER, S-9, KC 500, Method: PREINCUBATION
  mutagenic call: inactive; negative
Test System: E. COLI, Strain/Indicator: WP2 UVRA, Metabolic Activation: NONE, Method: PREINCUBATION
  mutagenic call: inactive; negative
Test System: E. COLI, Strain/Indicator: WP2UVRA, Metabolic Activation: NONE, Method: PREINCUBATION
  mutagenic call: inactive; negative
Test System: E. COLI, Strain/Indicator: WP2UVRA, Metabolic Activation: RAT LIVER S-9, PHENOBARBITAL AND BETA-NAPHTHOFLAVONE, Method: PREINCUBATION
  mutagenic call: inactive; negative
Test System: E. COLI, Strain/Indicator: WP2 UVRA, Metabolic Activation: RAT, LIVER, S-9, KC 500, Method: PREINCUBATION
  mutagenic call: inactive; negative
